From PubChem BioAssay AID2060513 (Molecular Pharmacology Branch, DTP, NCI, 2025)

Tested on: 299254-011-R-J1-PDC complex spheroids viability
Experiment: Anticancer human tumor 299254-011-R-J1-PDC patient-derived melanoma cell line growth inhibition [GQUAD]
Details: for IC50: curve of first compound; for viability, T/C: stronger effect = lower value
How it was run: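 Multi-cell-type spheroids of tumor cells with HUVEC and mesenchymal stem cells, treated with drug combinations. Concentrations descend in half-log steps from near clinical Cmax, or from 10 microM where Cmax is unknown; viability read-out.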

[1] = second compound 0.0316 µM, first compound 0.0316 µM
[2] = second compound 0.0316 µM, first compound 0.1 µM
[3] = second compound 0.0316 µM, first compound 0.316 µM
[4] = second compound 0.0316 µM, first compound 1 µM
[5] = second compound 0.0316 µM, first compound 3.16 µM
[6] = second compound 0.0316 µM, first compound 10 µM
[7] = second compound 0.1 µM, first compound 0.0316 µM
[8] = second compound 0.1 µM, first compound 0.1 µM
[9] = second compound 0.1 µM, first compound 0.316 µM
[10] = second compound 0.1 µM, first compound 1 µM
[11] = second compound 0.1 µM, first compound 3.16 µM
[12] = second compound 0.1 µM, first compound 10 µM
[13] = second compound 0.316 µM, first compound 0.0316 µM
[14] = second compound 0.316 µM, first compound 0.1 µM
[15] = second compound 0.316 µM, first compound 0.316 µM
[16] = second compound 0.316 µM, first compound 1 µM
[17] = second compound 0.316 µM, first compound 3.16 µM
[18] = second compound 0.316 µM, first compound 10 µM
[19] = second compound 1 µM, first compound 0.0316 µM
[20] = second compound 1 µM, first compound 0.1 µM
[21] = second compound 1 µM, first compound 0.316 µM
[22] = second compound 1 µM, first compound 1 µM
[23] = second compound 1 µM, first compound 3.16 µM
[24] = second compound 1 µM, first compound 10 µM
[25] = second compound 3.16 µM, first compound 0.0316 µM
[26] = second compound 3.16 µM, first compound 0.1 µM
[27] = second compound 3.16 µM, first compound 0.316 µM
[28] = second compound 3.16 µM, first compound 1 µM
[29] = second compound 3.16 µM, first compound 3.16 µM
[30] = second compound 3.16 µM, first compound 10 µM
[31] = second compound 10 µM, first compound 0.0316 µM
[32] = second compound 10 µM, first compound 0.1 µM
[33] = second compound 10 µM, first compound 0.316 µM
[34] = second compound 10 µM, first compound 1 µM
[35] = second compound 10 µM, first compound 3.16 µM
[36] = second compound 10 µM, first compound 10 µM
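Further: spheroids exposed to the agents for seven days before readout.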
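Wherever viability, T/C is given: percent viability relative to DMSO vehicle control wells = 100%.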

In the case of C=CCn1c(=O)c2cnc(Nc3ccc(N4CCN(C)CC4)cc3)nc2n1-c1cccc(C(C)(C)O)n1 + Cc1[nH]c2ccc(F)cc2c1-c1nc2c3cccnc3c3ncccc3c2[nH]1, the IC50 (second compound 0.0316 µM) is reported as 1960 nM, the IC50 (second compound 0.1 µM) is reported as 1460 nM and the IC50 (second compound 0.316 µM) is reported as 2120 nM. The IC50 (second compound 1 µM) was 2070 nM, the IC50 (second compound 3.16 µM) was 1560 nM and the IC50 (second compound 10 µM) was 929 nM. It also gave a viability, T/C [1] of 95.6%, a viability, T/C [2] of 101% and a viability, T/C [3] of 101%. It also gave a viability, T/C [4] of 69.8%, a viability, T/C [5] of 37.3% and a viability, T/C [6] of 29.8%. For the same molecule, the viability, T/C [7] was 117%, the viability, T/C [8] was 112% and the viability, T/C [9] was 115%. For the same molecule, the viability, T/C [10] was 59.2%, the viability, T/C [11] was 33.2% and the viability, T/C [12] was 29.2%. The viability, T/C [13] was 108%, the viability, T/C [14] was 108% and the viability, T/C [15] was 94%. The viability, T/C [16] was 70.4%, the viability, T/C [17] was 39.1% and the viability, T/C [18] was 25%. For the same molecule, the viability, T/C [19] was 109%, the viability, T/C [20] was 92.7% and the viability, T/C [21] was 92.9%. The viability, T/C [22] was 66.2%, the viability, T/C [23] was 39.4% and the viability, T/C [24] was 23.6%. The viability, T/C [25] was 86.1%, the viability, T/C [26] was 91% and the viability, T/C [27] was 102%. It also gave a viability, T/C [28] of 62.3%, a viability, T/C [29] of 33% and a viability, T/C [30] of 27.8%. It also gave a viability, T/C [31] of 94.4%, a viability, T/C [32] of 81.9% and a viability, T/C [33] of 85.9%. The viability, T/C [34] was 46.9%, the viability, T/C [35] was 26.4% and the viability, T/C [36] was 19.4%.
COc1ncnc(C2CC2)c1-c1ncc2cnn(Cc3ccc(-c4nc(C(F)(F)F)cn4C(C)C)cc3)c2n1 + Cc1[nH]c2ccc(F)cc2c1-c1nc2c3cccnc3c3ncccc3c2[nH]1 showed an IC50 (second compound 0.0316 µM) of over 10000 nM, an IC50 (second compound 0.1 µM) of over 10000 nM and an IC50 (second compound 0.316 µM) of over 10000 nM. The IC50 (second compound 1 µM) was over 10000 nM, the IC50 (second compound 3.16 µM) was over 10000 nM and the IC50 (second compound 10 µM) was over 10000 nM. The viability, T/C [1] was 106%, the viability, T/C [2] was 98.9% and the viability, T/C [3] was 101%. The viability, T/C [4] was 100%, the viability, T/C [5] was 107% and the viability, T/C [6] was 100%. It also gave a viability, T/C [7] of 120%, a viability, T/C [8] of 96.1% and a viability, T/C [9] of 110%. For the same molecule, the viability, T/C [10] was 104%, the viability, T/C [11] was 111% and the viability, T/C [12] was 83.5%. The viability, T/C [13] was 105%, the viability, T/C [14] was 107% and the viability, T/C [15] was 98.7%. The viability, T/C [16] was 92%, the viability, T/C [17] was 92.9% and the viability, T/C [18] was 84.6%. The viability, T/C [19] was 129%, the viability, T/C [20] was 107% and the viability, T/C [21] was 102%. For the same molecule, the viability, T/C [22] was 94.2%, the viability, T/C [23] was 103% and the viability, T/C [24] was 112%. The viability, T/C [25] was 104%, the viability, T/C [26] was 113% and the viability, T/C [27] was 108%. The viability, T/C [28] was 88.6%, the viability, T/C [29] was 99.8% and the viability, T/C [30] was 106%. It also gave a viability, T/C [31] of 91%, a viability, T/C [32] of 100% and a viability, T/C [33] of 108%. It also gave a viability, T/C [34] of 114%, a viability, T/C [35] of 106% and a viability, T/C [36] of 81.8%.
C=CC(=O)N1CCN(c2nc(=O)n(-c3c(C)ccnc3C(C)C)c3nc(-c4c(O)cccc4F)c(F)cc23)C(C)C1 (stereo unspecified) + Cc1cnc(CNC(=O)c2c(=O)c3ccc(N4CCCN(C)CC4)nc3n3c2sc2ccccc23)cn1 was tested, and the IC50 (second compound 0.0316 µM) was over 10000 nM, the IC50 (second compound 0.1 µM) was over 10000 nM and the IC50 (second compound 0.316 µM) was over 10000 nM. It also gave an IC50 (second compound 1 µM) of over 10000 nM, an IC50 (second compound 3.16 µM) of over 10000 nM and an IC50 (second compound 10 µM) of under 31.6 nM. For the same molecule, the viability, T/C [1] was 73.3%, the viability, T/C [2] was 71.1% and the viability, T/C [3] was 69.3%. For the same molecule, the viability, T/C [4] was 58.3%, the viability, T/C [5] was 59.4% and the viability, T/C [6] was 76.8%. The viability, T/C [7] was 67.8%, the viability, T/C [8] was 74.9% and the viability, T/C [9] was 64.1%. For the same molecule, the viability, T/C [10] was 57.6%, the viability, T/C [11] was 60.7% and the viability, T/C [12] was 78.2%. It also gave a viability, T/C [13] of 93%, a viability, T/C [14] of 72.9% and a viability, T/C [15] of 60.8%. It also gave a viability, T/C [16] of 67.4%, a viability, T/C [17] of 65.1% and a viability, T/C [18] of 70.3%. For the same molecule, the viability, T/C [19] was 73.8%, the viability, T/C [20] was 65.3% and the viability, T/C [21] was 65.2%. For the same molecule, the viability, T/C [22] was 67.3%, the viability, T/C [23] was 83.7% and the viability, T/C [24] was 61.2%. The viability, T/C [25] was 76.3%, the viability, T/C [26] was 78.9% and the viability, T/C [27] was 63.5%. It also gave a viability, T/C [28] of 69.8%, a viability, T/C [29] of 74.6% and a viability, T/C [30] of 52.9%. For the same molecule, the viability, T/C [31] was 0.4%, the viability, T/C [32] was 0.46% and the viability, T/C [33] was 8.66%. It also gave a viability, T/C [34] of 0.41%, a viability, T/C [35] of 0.41% and a viability, T/C [36] of 0.36%.
